Experimental data published in PubChem BioAssay (NCI).
Several values for one entry are separate records, joined by “and”; a condition that tells them apart may be missing. Equal entries are not always repeated.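 Interpolation was linear, between the two tested concentrations surrounding the appropriate level; five concentrations were tested over 48 hours in 96-well plates. The concentration for 50% growth inhibition is given as GI50. TGI: total growth inhibition.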

Legend:
Experiment in all cases: NCI tumour cell line growth inhibition, 48 h
A498 renal = tested on: A498 renal
CCRF-CEM leukemia = tested on: CCRF-CEM leukemia
HCT-15 colon = tested on: HCT-15 colon
K-562 leukemia = tested on: K-562 leukemia
OVCAR-8 ovarian = tested on: OVCAR-8 ovarian
SK-MEL-2 melanoma = tested on: SK-MEL-2 melanoma
SK-MEL-28 melanoma = tested on: SK-MEL-28 melanoma
SK-MEL-5 melanoma = tested on: SK-MEL-5 melanoma
SN12C renal = tested on: SN12C renal
HOP-62 NSCLC = tested on: HOP-62 NSCLC
MCF7 breast = tested on: MCF7 breast
PC-3 prostate = tested on: PC-3 prostate

Row | Compound | TGI (A498 renal) | TGI (CCRF-CEM leukemia) [µM] | TGI (HCT-15 colon) | TGI (K-562 leukemia) | TGI (OVCAR-8 ovarian) [µM] | TGI (SK-MEL-2 melanoma) | TGI (SK-MEL-28 melanoma) | TGI (SK-MEL-5 melanoma) [µM] | TGI (SN12C renal) [µM] | TGI (HOP-62 NSCLC) | TGI (MCF7 breast) | TGI (PC-3 prostate) [µM] | GI50 (A498 renal) [µM] | GI50 (HCT-15 colon) [µM] | GI50 (HOP-62 NSCLC) [µM] | GI50 (K-562 leukemia) | GI50 (MCF7 breast) | GI50 (OVCAR-8 ovarian) [nM] | GI50 (SK-MEL-2 melanoma) [µM] | GI50 (SK-MEL-28 melanoma)
1 | Cc1ccc2c(c1CCCC(C)(C)O)C(=O)C(=O)C(C(C)C)=C2O | > 100 µM | > 100 | > 100 µM | > 100 µM | > 100 | > 100 µM | > 100 µM | > 100 | > 100 |  |  |  |  |  |  |  |  |  |  | 
2 | C=CCN1C[C@H](C)N([C@H](c2ccc(C(=O)N(CC)CCO)cc2)c2cccc(OC)c2)C[C@H]1C | > 100 µM |  | > 100 µM |  | > 100 | > 100 µM | > 100 µM | > 100 | > 100 | > 100 µM | > 100 µM | > 100 |  |  |  |  |  |  |  | 
3 | O=C(C(=O)N1CCc2ccccc21)c1c[nH]c2ccccc12 |  | > 10 | > 10 µM | > 10 µM | > 10 | > 10 µM | > 10 µM | > 10 | > 10 | > 10 µM | > 10 µM | > 10 |  |  |  |  |  |  |  | 
4 | C=C1C(=O)O[C@H]2[C@H]1[C@@H](OC(=O)C=C(C)C)CC1=C[C@@H](C[C@@]3(C)O[C@@H]23)OC1=O | 26.5 µM and 39.2 µM | 1120 | 3.97 µM and 11.7 µM | 50.2 µM and 9.4 µM | 7.5 | 17.6 µM and 30 µM | 46 µM and 8.18 µM | 15 | 12.7 | 52.2 µM and 187 µM | 4.39 µM and 6.93 µM |  | 21.3 | 3.46 | 60.9 | 1020 nM and 3160 nM | 603 nM and 2590 nM | 1990 | 13 | 8.31 µM and 3.23 µM
5 | C[C@]12CCC(=O)C=C1CC[C@@H]1C2CC[C@]2(C)c3nn(-c4ccc(F)cc4)nc3CC12 (stereo not given in full) | > 100 µM | > 100 |  | > 100 µM | > 100 |  | > 100 µM | > 100 | > 100 | > 100 µM | > 100 µM | > 100 |  |  |  |  |  |  |  | 
6 | Cc1ccc2nc(-c3ccc(N)c(I)c3)sc2c1 | 56 µM | 88.8 | 23.2 µM | > 100 µM | > 100 | 40.8 µM | > 100 µM | > 100 |  | > 100 µM |  | 60.6 |  |  |  |  |  |  |  | 
7 | COc1ccc2c(c1)CN1C(=N2)CSC1c1cc([N+](=O)[O-])ccc1Cl (stereo not given) |  |  | > 100 µM | > 100 µM | > 100 | > 100 µM |  | > 100 | > 100 | > 100 µM | > 100 µM | > 100 |  |  |  |  |  |  |  | 
8 | O=c1[nH]cc(COCC(F)(F)C(F)(F)C(F)(F)C(F)F)c(=O)[nH]1 |  | > 100 | > 100 µM | > 100 µM | > 100 | > 100 µM | > 100 µM | > 100 | > 100 | > 100 µM |  |  |  |  |  |  |  |  |  | 
9 | CCC1c2[nH]c3ccccc3c2C[C@H]2C(=O)NC(COC(C)(C)C)C(=O)N12 (stereo not given in full) | > 100 µM |  | > 100 µM | > 100 µM | > 100 | 85 µM | > 100 µM | 93.3 | > 100 | > 100 µM | > 100 µM | 91.9 |  |  |  |  |  |  |  | 
10 | CC(=O)N(C(=O)CC(=O)N/N=C\c1ccc(Br)c(N(CCC#N)CCC#N)c1)c1ccc(Cl)cc1 | > 100 µM | > 100 | > 100 µM | > 100 µM | > 100 |  | > 100 µM |  | > 100 | > 100 µM | > 100 µM | > 100 |  |  |  |  |  |  |  | 
11 | O=C1NC(=O)C(CCO)(c2ccccc2)C(=O)N1 | > 100 µM | > 100 | > 100 µM | > 100 µM | > 100 | > 100 µM | > 100 µM | > 100 | > 100 | > 100 µM | > 100 µM |  |  |  |  |  |  |  |  | 
12 | Cc1cn(C2CC(ON3C(=O)c4ccccc4C3=O)C(CO)O2)c(=O)[nH]c1=O (stereo not given) |  | > 10 | > 10 µM | > 10 µM | > 10 | > 10 µM |  |  | > 10 |  | > 10 µM | > 10 |  |  |  |  |  |  |  | 
13 | Cc1ccc(C2CC(c3ccco3)=NN2c2ccccc2)o1 (stereo not given) |  | > 100 | > 100 µM | > 100 µM | > 100 | > 100 µM | > 100 µM | > 100 | > 100 | > 100 µM |  |  |  |  |  |  |  |  |  | 
14 | COC(=O)C(=C/c1ccc(OC)cc1)/C(C(=O)O)=C(/C)c1ccccc1 | > 100 µM | > 100 | > 100 µM | > 100 µM | > 100 | > 100 µM |  | > 100 | > 100 | > 100 µM |  |  |  |  |  |  |  |  |  | 
15 | COC(=O)c1ccc(/C=C2\N=C(C)OC2=O)cc1 | > 100 µM | > 100 | > 100 µM | > 100 µM | > 100 |  | > 100 µM | > 100 | > 100 | > 100 µM |  |  |  |  |  |  |  |  |  | 
16 | Nc1ccc(C(=O)NN2C(=O)C(Cl)C2c2ccccc2Cl)cc1 (stereo not given) |  | 6.67 | 10.2 µM |  | 10.8 | 24.5 µM | 28.3 µM | 29.5 |  | 35.4 µM |  |  |  |  |  |  |  |  |  | 
17 | CCN1CCN(c2ccc(Nc3ccnc4ccc5nn(C)nc5c34)cc2)CC1 |  | > 100 | 27.6 µM | > 100 µM | 25.3 |  | 30.5 µM | 28.5 | 42.3 | 26.4 µM |  |  |  |  |  |  |  |  |  | 
18 | CC1=NC(=Cc2ccc(O)cc2)C(=O)N1n1c(-c2ccccc2)nc2ccccc2c1=O | > 100 µM | > 100 | > 100 µM | > 100 µM | > 100 |  | > 100 µM | > 100 | > 100 | > 100 µM | > 100 µM | > 100 |  |  |  |  |  |  |  | 
19 | Cc1cccc2c1Oc1cc(Cl)ccc1C2NC(=O)CCN1CCOCC1 (stereo not given) |  | > 100 | > 100 µM | > 100 µM | > 100 |  | > 100 µM | > 100 | > 100 | > 100 µM | > 100 µM | > 100 |  |  |  |  |  |  |  | 
